This is an account of results in patent publication US11339130B1 (Blade Therapeutics, Inc., priority 2016, dated 2022).

One assay concerns the target T1, Human Calpain 2/NS1 (Homo sapiens, UniProt P17655).
T1 sequence (P17655 1-700): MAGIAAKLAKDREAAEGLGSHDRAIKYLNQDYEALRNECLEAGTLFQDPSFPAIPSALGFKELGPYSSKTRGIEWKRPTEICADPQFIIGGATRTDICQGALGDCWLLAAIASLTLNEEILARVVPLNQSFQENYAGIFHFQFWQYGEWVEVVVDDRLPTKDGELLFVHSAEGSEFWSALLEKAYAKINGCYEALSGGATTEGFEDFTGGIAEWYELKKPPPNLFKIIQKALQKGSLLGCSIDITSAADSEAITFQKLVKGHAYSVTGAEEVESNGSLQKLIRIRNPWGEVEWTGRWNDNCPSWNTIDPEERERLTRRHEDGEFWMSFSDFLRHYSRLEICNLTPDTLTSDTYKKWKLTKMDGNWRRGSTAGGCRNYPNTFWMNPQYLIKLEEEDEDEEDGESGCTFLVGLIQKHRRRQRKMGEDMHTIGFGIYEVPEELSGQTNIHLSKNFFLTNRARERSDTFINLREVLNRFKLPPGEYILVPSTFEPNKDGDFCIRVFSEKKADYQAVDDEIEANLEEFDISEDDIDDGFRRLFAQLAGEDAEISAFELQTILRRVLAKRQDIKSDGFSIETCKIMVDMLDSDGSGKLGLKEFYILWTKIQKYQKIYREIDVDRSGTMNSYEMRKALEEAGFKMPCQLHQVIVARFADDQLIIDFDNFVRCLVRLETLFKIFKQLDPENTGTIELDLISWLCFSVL
T1 sequence (P04632 1-268 partner): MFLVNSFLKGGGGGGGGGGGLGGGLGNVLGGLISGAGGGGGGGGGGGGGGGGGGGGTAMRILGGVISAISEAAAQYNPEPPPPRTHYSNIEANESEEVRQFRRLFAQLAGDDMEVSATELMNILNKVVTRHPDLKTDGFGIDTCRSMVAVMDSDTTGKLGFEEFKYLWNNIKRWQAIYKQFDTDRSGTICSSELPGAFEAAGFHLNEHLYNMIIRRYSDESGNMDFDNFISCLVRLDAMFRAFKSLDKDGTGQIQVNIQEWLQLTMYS
In words: Calpain inhibition continuous fluorescence (FRET) assay, Human Calpain 2/NS1. The settings on record: read-out: Human Calpain 2/NS1 IC50. Format: biochemical. The method in brief: (§1)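 Fluorescence increase from the cleaved 5-FAM/QXL 520 substrate, read at 490/520 nm, gave activity. Calcium was supplied with the substrate to activate the enzyme in situ after a 25C enzyme-inhibitor preincubation, and IC50s were fit from initial slopes.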

The next assay deals with T2, Human Calpain 9/NS1 (Homo sapiens, UniProt O14815).
T2 sequence (O14815 1-690): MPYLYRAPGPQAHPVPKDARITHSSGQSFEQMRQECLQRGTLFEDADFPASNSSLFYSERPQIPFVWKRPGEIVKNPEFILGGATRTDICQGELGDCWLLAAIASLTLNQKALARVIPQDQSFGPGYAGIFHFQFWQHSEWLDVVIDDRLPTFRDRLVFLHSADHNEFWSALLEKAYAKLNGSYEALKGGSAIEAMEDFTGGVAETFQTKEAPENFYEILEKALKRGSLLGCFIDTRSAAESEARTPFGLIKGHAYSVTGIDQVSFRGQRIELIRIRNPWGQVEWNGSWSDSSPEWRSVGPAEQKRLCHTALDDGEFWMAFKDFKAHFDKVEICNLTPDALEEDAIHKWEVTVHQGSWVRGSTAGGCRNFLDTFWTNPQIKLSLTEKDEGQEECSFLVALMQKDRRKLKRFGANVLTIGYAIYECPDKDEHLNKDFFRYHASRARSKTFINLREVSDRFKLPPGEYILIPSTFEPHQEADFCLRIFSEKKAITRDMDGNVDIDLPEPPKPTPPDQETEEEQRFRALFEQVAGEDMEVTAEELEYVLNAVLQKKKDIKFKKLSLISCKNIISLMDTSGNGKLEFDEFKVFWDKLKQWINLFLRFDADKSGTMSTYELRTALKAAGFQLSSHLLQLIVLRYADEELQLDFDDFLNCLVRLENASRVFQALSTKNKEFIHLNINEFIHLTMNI
T2 sequence (P04632 1-268 partner): T1 sequence (P04632 1-268 partner)
In words: Calpain inhibition continuous fluorescence (FRET) assay, Human Calpain 9/NS1. The class given is biochemical. The note with it: read-out: Human Calpain 9/NS1 IC50. The method, boiled down: as §1

The next assay has as its target T3, Human Calpain 1/NS1 (Homo sapiens, UniProt P07384).
T3 sequence (P07384 1-714): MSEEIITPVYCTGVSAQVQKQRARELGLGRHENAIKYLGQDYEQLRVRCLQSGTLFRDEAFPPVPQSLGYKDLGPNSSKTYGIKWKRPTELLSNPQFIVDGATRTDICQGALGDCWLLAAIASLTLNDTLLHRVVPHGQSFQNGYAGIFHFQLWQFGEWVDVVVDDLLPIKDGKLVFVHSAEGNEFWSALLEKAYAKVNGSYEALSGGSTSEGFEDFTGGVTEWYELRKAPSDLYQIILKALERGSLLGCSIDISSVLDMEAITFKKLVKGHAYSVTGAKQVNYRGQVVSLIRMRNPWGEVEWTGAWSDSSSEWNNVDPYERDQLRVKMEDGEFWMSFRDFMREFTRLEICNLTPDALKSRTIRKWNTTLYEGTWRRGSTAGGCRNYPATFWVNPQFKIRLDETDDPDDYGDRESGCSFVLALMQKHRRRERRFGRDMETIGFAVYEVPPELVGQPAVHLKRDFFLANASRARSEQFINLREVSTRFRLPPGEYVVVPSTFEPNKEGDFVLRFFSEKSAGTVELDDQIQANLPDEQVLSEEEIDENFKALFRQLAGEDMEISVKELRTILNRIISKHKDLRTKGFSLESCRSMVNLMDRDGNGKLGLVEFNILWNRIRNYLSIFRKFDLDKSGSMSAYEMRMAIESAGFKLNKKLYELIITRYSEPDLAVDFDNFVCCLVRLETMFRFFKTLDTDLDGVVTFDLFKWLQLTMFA
T3 sequence (P04632 1-268 partner): T1 sequence (P04632 1-268 partner)
The assay is described as follows: Calpain inhibition continuous fluorescence (FRET) assay, Human Calpain 1/NS1. The class given is biochemical. The note with it: read-out: Human Calpain 1/NS1 IC50. The method, boiled down:
as §1

Assay [1] concerns Calpain activity in SH-SY5Y cells (SBDP-150). The assay is described as follows: SH-SY5Y Spectrin western blot assay (SBDP-150 breakdown product, A23187-induced). The note with it: Homo sapiens, SH-SY5Y cells, read-out: SH-SY5Y Spectrin IC50. Format: cell-based.
For assay [2], the system named is Calpain activity in SH-SY5Y cells. In words: SH-SY5Y + AMC fluorescence assay (Suc-LLVY-AMC substrate). Format: cell-based.
Where [3] appears, read: A23187-induced SBDP-150, western blot.
Setting [4] is: Column E, read-out: SH-SY5Y + AMC IC50.

SMILES strings stand for the structures. Like-named read-outs stand apart in the source and are kept apart here. Some results are limits rather than exact numbers.

For the compound `Cc1cc(C(=O)N[C@@H](Cc2ccccc2)C(=O)C(N)=O)n(-c2nc3ccccc3s2)n1` [Compound 13, (S)—N-(4-amino-3,4-dioxo-1-phenylbutan-2-yl)-1-(benzo[D]thiazol-2-yl)-3-methyl-1H-pyrazole-5-carboxamide], the IC50 was below 3 µM at Human Calpain 2/NS1 (Column B); below 3 µM on Human Calpain 9/NS1 (Column C); below 3 µM on Human Calpain 1/NS1 (Column A); above 25 µM in assay [1] (Column D, A23187-induced SBDP-150).
Regarding `NC(=O)C(=O)C(Cc1ccccc1)NC(=O)c1nsnc1Cl` (stereo not shown) [Compound 364, N-(4-amino-3,4-dioxo-1-phenylbutan-2-yl)-4-chloro-1,2,5-thiadiazole-3-carboxamide], the IC50 on Human Calpain 2/NS1 was below 3 µM; on Human Calpain 9/NS1 it was below 3 µM; at Human Calpain 1/NS1 it was below 3 µM; in assay [1] (setting [3]), 10 to 25 µM.
Take `Cn1cc(C(=O)NC(Cc2ccccc2)C(=O)C(N)=O)c(-c2ccc(C#N)nc2)n1` (stereo not shown) [Compound 481, N-(4-amino-3,4-dioxo-1-phenylbutan-2-yl)-3-(6-cyanopyridin-3-yl)-1-methyl-1H-pyrazole-4-carboxamide]: the IC50 at Human Calpain 2/NS1 is below 3 µM; on Human Calpain 9/NS1, below 3 µM; on Human Calpain 1/NS1, below 3 µM; in assay [1] (setting [3]), above 25 µM.
With `C[C@@H]1C[C@@H](C(=O)NC(Cc2ccccc2)C(=O)C(N)=O)N(c2ccccc2)C1` (stereo partly drawn) [Compound 292, (2S,4R)—N-(4-amino-3,4-dioxo-1-phenylbutan-2-yl)-4-methyl-1-phenylpyrrolidine-2-carboxamide], the IC50 on Human Calpain 2/NS1 (Column B) is below 3 µM; in assay [2] (setting [4]), above 25 µM; on Human Calpain 9/NS1 (Column C), below 3 µM; on Human Calpain 1/NS1 (Column A) it was below 3 µM.
For `Cc1nc(C(=O)NC(Cc2ccccc2)C(=O)C(N)=O)c(-c2ccccc2)o1` (stereo not shown) [Compound 494, N-(4-amino-3,4-dioxo-1-phenylbutan-2-yl)-2-methyl-5-phenyloxazole-4-carboxamide], the IC50 at Human Calpain 2/NS1 is below 3 µM; in assay [2] (read-out: SH-SY5Y + AMC IC50), above 25 µM; at Human Calpain 9/NS1, below 3 µM; on Human Calpain 1/NS1, below 3 µM.
Consider `NC(=O)C(=O)C(Cc1ccccc1)NC(=O)c1cn(C2CC2)nc1-c1ccc(C(F)(F)F)nc1` (stereo not shown) [Compound 414, N-(4-amino-3,4-dioxo-1-phenylbutan-2-yl)-1-cyclopropyl-3-(6-(trifluoromethyl)pyridin-3-yl)-1H-pyrazole-4-carboxamide], for which the IC50 was below 3 µM on Human Calpain 2/NS1, above 25 µM in assay [2] (read-out: SH-SY5Y + AMC IC50), below 3 µM on Human Calpain 9/NS1 and below 3 µM at Human Calpain 1/NS1.
Take `Cn1cc(C(=O)NC(C=O)c2ccccc2C(F)(F)F)c(-c2ccccc2F)n1` (stereo not shown) [Compound 519, 3-(2-Fluorophenyl)-1-METHYL-N-(2-oxo-1-(2-(trifluoromethyl)phenyl)ethyl)-1H-pyrazole-4-carboxamide]: the IC50 on Human Calpain 2/NS1 was above 10 µM; in assay [2] (read-out: SH-SY5Y + AMC IC50), above 25 µM; on Human Calpain 9/NS1, above 10 µM; at Human Calpain 1/NS1 it was above 10 µM.
Turning to `NC(=O)C(=O)[C@H](Cc1ccccc1)NC(=O)c1cc(Cl)sc1-c1ccccc1` [Compound 271, (S)—N-(4-amino-3,4-dioxo-1-phenylbutan-2-yl)-5-chloro-2-phenylthiophene-3-carboxamide], the IC50 is below 3 µM at Human Calpain 2/NS1 (Column B), above 25 µM in assay [2] (setting [4]), below 3 µM at Human Calpain 9/NS1 (Column C) and below 3 µM at Human Calpain 1/NS1 (Column A).
For the compound `Cc1ccccc1-c1nc(C(F)(F)F)oc1C(=O)NC(Cc1ccccc1)C(=O)C(N)=O` (stereo not shown) [Compound 359, N-(4-amino-3,4-dioxo-1-phenylbutan-2-yl)-4-(o-tolyl)-2-(trifluoromethyl)oxazole-5-carboxamide], the IC50 on Human Calpain 2/NS1 is below 3 µM; in assay [2] (read-out: SH-SY5Y + AMC IC50), 10 to 25 µM; at Human Calpain 9/NS1, below 3 µM; on Human Calpain 1/NS1, below 3 µM.
Take `COc1ccccc1-c1nn(C)cc1C(=O)NC(Cc1ccccc1)C(=O)C(N)=O` (stereo not shown) [Compound 511, N-(4-amino-3,4-dioxo-1-phenylbutan-2-yl)-3-(2-methoxyphenyl)-1-methyl-1H-pyrazole-4-carboxamide]: the IC50 on Human Calpain 2/NS1 is below 3 µM; in assay [2] (read-out: SH-SY5Y + AMC IC50), above 25 µM; at Human Calpain 9/NS1, below 3 µM; at Human Calpain 1/NS1 it was below 3 µM.
In the case of `COCCOCCNC(=O)C(=O)[C@H](Cc1ccccc1)NC(=O)c1cn(C)nc1-c1ccccc1` [Compound 335, (S)—N-(4-((2-(2-methoxyethoxy)ethyl)amino)-3,4-dioxo-1-phenylbutan-2-yl)-1-methyl-3-phenyl-1H-pyrazole-4-carboxamide], the IC50 at Human Calpain 2/NS1 is below 3 µM; in assay [2] (read-out: SH-SY5Y + AMC IC50), below 10 µM; at Human Calpain 9/NS1 it was below 3 µM; at Human Calpain 1/NS1 it was below 3 µM.
On to `O=C[C@H](Cc1ccccc1)NC(=O)c1scnc1-c1ccccc1` [Compound 6, (S)—N-(1-oxo-3-phenylpropan-2-yl)-4-phenylthiazole-5-carboxamide], for which the IC50 at Human Calpain 2/NS1 (Column B) is below 3 µM; in assay [2] (setting [4]), above 25 µM; at Human Calpain 9/NS1 (Column C), below 3 µM; at Human Calpain 1/NS1 (Column A) it was below 3 µM.
For the compound `COC(=O)NCc1cccc(-n2nc(C)cc2C(=O)N[C@@H](Cc2ccccc2)C(=O)C(N)=O)c1` [Compound 140, Methyl (S)-(3-(5-((4-amino-3,4-dioxo-1-phenylbutan-2-yl)carbamoyl)-3-methyl-1H-pyrazol-1-yl)benzyl)carbamate], the IC50 on Human Calpain 2/NS1 (Column B) was below 3 µM; in assay [2] (read-out: SH-SY5Y + AMC IC50, Column E) it was 10 to 25 µM; at Human Calpain 9/NS1 (Column C), below 3 µM; on Human Calpain 1/NS1 (Column A), below 3 µM.
